# Reference: patent US7446091B2, “Methods and preparations for curing clinically ill patients” (Novo Nordisk A/S, priority 2000, dated 2008)
# Test system: mechanically ventilated, adult patients admitted to the intensive care unit (ICU)
# Test: Example 2: prospective, randomized, controlled study, mortality analysis
# Type: in vivo, human
# Description: All mechanically ventilated, adult patients admitted to the intensive care unit (ICU) were eligible for inclusion.
# All mechanically ventilated, adult (age>18y) patients admitted to our 56-bed, mainly surgical, ICU from Feb. 2, 2000 onward were considered eligible for inclusion. […] Informed consent was obtained from the closest family member. The study protocol was approved by the Institutional Review Board of the Catholic University of Leuven School of Medicine.
# Consecutive patients were randomly assigned to one of these two treatment groups using blinded envelopes, stratified according to type of critical illness diagnosed on admission [(a) neurological disease, cerebral trauma or surgery; (b) cardiac surgery; (c) thoracic surgery and/or respiratory insufficiency; (d) abdominal surgery/peritonitis; (e) vascular surgery; (f) multiple trauma or severe burns: (g) organ transplantation; (h) others, mainly extensive oncological procedures] and balanced with the use of permuted blocks of ten.
# All patients were fed continuously, on admission with mainly intravenous glucose (200-300 g/24 h) and from the next day onward with a standardised feeding schedule aiming for a caloric content up to 20-30 non-protein Calories/kg/24 h and a balanced composition (0.13-0.26 g nitrogen/kg/24 h and 20%-40% of non-protein Calories as lipids) of either total parenteral, combined parenteral/enteral or full enteral feeding, the latter mode attempted as early as possible. Other comcomitant ICU therapy was left to the discretion of attending physicians.
# In patients treated in ICU for more than one week, a weekly electromyography (EMG) was performed to screen for Critical Illness Polyneuropathy. EMGs were interpreted by the same electrophysiologist who was blinded for randomization. In case of ICU death, a post-mortem examination was performed to confirm the presumed cause of death.
# The primary outcome measure was death from all causes during intensive care. Secondary outcome measures were in-hospital mortality, incidence of prolonged intensive care dependency and need for ICU re-admission, need for vital organ system support comprising mechanical ventilatory support, renal replacement therapy (continuous or intermittent hemofiltration or dialysis), inotropic or vasopressor support, incidence of critical illness polyneuropathy, the degree of inflammation, incidence of blood stream infections and use of antibiotics, transfusion requirements and incidence of hyperbilirubinemia. Furthermore, use of intensive care resources was analysed by cumulative TISS scores. In order to accurately and objectively assess duration of ICU stay, which is often influenced by non-patient related factors such as bed availability on regular wards, patients were defined ‘dischargable from ICU’ when they were no longer in need of vital organ system support and received at least ⅔rd of the caloric need through the normal enteral route or earlier when actually sent to a ward.
# We hypothesized to detect a difference in mortality selectively in long-stay (>5 days) critically ill patients. Since prolonged ICU stay is not predictable at ICU admission, and since we aimed at treatment from admission onward, we chose to include all mechanically ventilated patients admitted to the ICU, without selection. We estimated that inclusion of 2500 admissions would be needed to rule out an absolute difference in mortality of ±5% in the long-stay cohort which would translate in an absolute risk reduction of ±2% for overall ICU mortality (2-sided alfa level of <0.05). […] All analyses were done on intention to treat basis.
# Baseline and outcome variables were compared using Student's t-test, Chi-square test and Mann-Whitney-U test, as appropriate. Death odds ratios were calculated using multivariate logistic regression analysis.
substance,measurement,setting,value
insulin,Causes of death during intensive care - total no: cardiogenic shock,IIS,10
same,Causes of death during intensive care - total no: multiple organ failure with proven septic focus,IIS,8
same,"Causes of death during intensive care - total no: multiple organ failure, no detectable septic focus",IIS,14
same,Causes of death during intensive care - total no: severe brain damage,IIS,3
same,ICU deaths among patients staying >5 days (%),IIS,(10.6%)
same,ICU deaths among patients staying >5 days - total no.,IIS,22
same,ICU deaths among patients staying ≤5 days (%),IIS,(2.3%)
same,ICU deaths among patients staying ≤5 days - total no.,IIS,13
same,"ICU deaths, abdominal surgery/peritonitis (%)",IIS,(13.3%)
same,"ICU deaths, abdominal surgery/peritonitis - total no",IIS,6
same,"ICU deaths, cardiac surgery (%)",IIS,(2%)
same,"ICU deaths, cardiac surgery - total no.",IIS,10
same,"ICU deaths, multiple trauma or severe burns (%)",IIS,(12.1%)
same,"ICU deaths, multiple trauma or severe burns - total no.",IIS,4
same,"ICU deaths, neurological disease, cerebral trauma or surgery (%)",IIS,(18.1%)
same,"ICU deaths, neurological disease, cerebral trauma or surgery - total no.",IIS,6
same,"ICU deaths, other types of critical illness (%)",IIS,(8.7%)
same,"ICU deaths, other types of critical illness - total no",IIS,25
same,"ICU deaths, others (%)",IIS,(0%)
same,"ICU deaths, others - total no",IIS,0
same,"ICU deaths, thoracic surgery and/or respiratory insufficiency - total no.",IIS,5
same,"ICU deaths, transplantation (%)",IIS,(4.3%)
same,"ICU deaths, transplantation - total no",IIS,2
same,"ICU deaths, vascular surgery (%)",IIS,(6.6%)
same,"ICU deaths, vascular surgery - total no.",IIS,2
same,In-hospital deaths among patients staying >5 days in ICU (%),IIS,(16.8%)
same,In-hospital deaths among patients staying >5 days in ICU - total no.,IIS,35
same,In-hospital deaths among patients staying ≤5 days in ICU (%),IIS,(3.6%)
same,In-hospital deaths among patients staying ≤5 days in ICU - total no.,IIS,20
same,Mortality in bacteremic patients,IIS,12.5%
same,"ICU deaths among patients staying >5 days, NNT",IIS vs RIS,11
same,"ICU deaths among patients staying >5 days, RRR (%)",IIS vs RIS,47%
same,"ICU deaths among patients staying ≤5 days, RRR (%)",IIS vs RIS,=
same,"ICU deaths, NNT to save one life",IIS vs RIS,29
same,"ICU deaths, RRR (%)",IIS vs RIS,43%
same,"In-hospital deaths among patients staying >5 days in ICU, NNT",IIS vs RIS,11
same,"In-hospital deaths among patients staying >5 days in ICU, RRR (%)",IIS vs RIS,36%
same,"In-hospital deaths among patients staying ≤5 days in ICU, RRR (%)",IIS vs RIS,=
same,"In-hospital deaths, NNT",IIS vs RIS,27
same,"In-hospital deaths, RRR (%)",IIS vs RIS,34%
same,"ICU mortality, absolute risk reduction in the prolonged critically ill cohort","IIS vs RIS, ICU stay >5 days",9.6%
same,ICU deaths - total no.,"IIS, N = 765",35
same,In-hospital deaths - total no.,"IIS, N = 765",55
same,Causes of death during intensive care - total no: cardiogenic shock,RIS,7
same,Causes of death during intensive care - total no: multiple organ failure with proven septic focus,RIS,33
same,"Causes of death during intensive care - total no: multiple organ failure, no detectable septic focus",RIS,18
same,Causes of death during intensive care - total no: severe brain damage,RIS,5
same,ICU deaths among patients staying >5 days (%),RIS,(20.2%)
same,ICU deaths among patients staying >5 days - total no.,RIS,49
same,ICU deaths among patients staying ≤5 days (%),RIS,(2.6%)
same,ICU deaths among patients staying ≤5 days - total no.,RIS,14
same,"ICU deaths, abdominal surgery/peritonitis (%)",RIS,(15.5%)
same,"ICU deaths, abdominal surgery/peritonitis - total no",RIS,9
same,"ICU deaths, cardiac surgery (%)",RIS,(5%)
same,"ICU deaths, cardiac surgery - total no.",RIS,25
same,"ICU deaths, multiple trauma or severe burns (%)",RIS,(8.6%)
same,"ICU deaths, multiple trauma or severe burns - total no.",RIS,3
same,"ICU deaths, neurological disease, cerebral trauma or surgery (%)",RIS,(23.3%)
same,"ICU deaths, neurological disease, cerebral trauma or surgery - total no.",RIS,7
same,"ICU deaths, other types of critical illness (%)",RIS,(13.1%)
same,"ICU deaths, other types of critical illness - total no",RIS,38
same,"ICU deaths, others (%)",RIS,(17.1%)
same,"ICU deaths, others - total no",RIS,6
same,"ICU deaths, thoracic surgery and/or respiratory insufficiency (%)",RIS,(17.9%)
same,"ICU deaths, thoracic surgery and/or respiratory insufficiency - total no.",RIS,10
same,"ICU deaths, transplantation (%)",RIS,(2.3%)
same,"ICU deaths, transplantation - total no",RIS,1
same,"ICU deaths, vascular surgery (%)",RIS,(6.3%)
same,"ICU deaths, vascular surgery - total no.",RIS,2
same,In-hospital deaths among patients staying >5 days in ICU (%),RIS,(26.3%)
same,In-hospital deaths among patients staying >5 days in ICU - total no.,RIS,64
same,In-hospital deaths among patients staying ≤5 days in ICU (%),RIS,(3.9%)
same,In-hospital deaths among patients staying ≤5 days in ICU - total no.,RIS,21
same,Mortality in bacteremic patients,RIS,29.5%
same,ICU deaths - total no.,"RIS, N = 783",63
same,In-hospital deaths - total no.,"RIS, N = 783",85
same,ICU mortality among the RIS patients actually receiving insulin,"RIS, insulin-receiving patients",12.4%
